From patent US10487078B2, “Compositions and methods of targeting mutant K-RAS” (NantBio, Inc., priority 2015, dated 2019)

How the values were obtained:
[1] = system: Panc1 (G12D) cells; experiment: 72 hr cell viability (CellTiterBlue); format: cell-based; settings: GI50, 72 hr
Experimental: (§1) Viability assays were performed on exemplary compounds and Table 2 below lists exemplary results for selected compounds tested on wild type (Ishikawa) and various K-ras mutants (Panc1-G12D; Panc10.05-G12D; HCT116-G13D).
(§2) Cells are counted and seeded at 1000 cells/36 ul medium/well into 384-well microplates. Cells are returned to 37° C. CO2 incubator for 18 hr. Drug is made as 200× in DMSO and diluted into medium to 10×. To each well is added 4 ul 10× drug, and plates are returned to the incubator. Final assay DMSO concentration is 0.5%. After 72 hr, 8 ul CellTiterBlue (Promega) is added to each well. After 3 hr, fluorescence (Ex550/Em590) is determined on the Victor Plate Reader (Perkin Elmer). Assay range is determined by DMSO control (100% viability) and 100 uM tamoxifen (0% viability). GI50 values are calculated using Graphpad Prism.

[2] = system: Panc10.05 (G12D) cells; experiment: 72 hr cell viability (CellTiterBlue); format: cell-based; settings: GI50, 72 hr
Experimental: as §1, §2

[3] = system: Erk phosphorylation in Panc1 (G12D) cells; experiment: In-Cell Western Erk phosphorylation; format: cell-based; settings: EC50, one hour treatment; read-out: In-Cell Western Erk phosporylation Panc1 (G12D)
Experimental: (§3) In-cell phosphorylation assays for Erk and Akt were performed on various of the compounds and exemplary results are shown in Table 3 below using […] and Panc10.05 cell lines for G12D K-ras mutants.
(§4) Cells are seeded in complete medium into black sided, clear-bottom 384-well microplates at 3000 cells/[…]/well. Plates are returned to 37° C. CO2 incubator for 18 hr. Drug is made as 200× in DMSO and diluted into medium to 10×. To each well is added 4 ul 10× test article or controls, and plates are returned to the incubator. Final assay DMSO concentration is 0.5%. After one hour, cells are fixed in formaldehyde, rinsed & permeabilized with triton X-100, and blocked with BSA/Goat serum blocking solution. Primary phospho-Akt and phospho-ERK antibodies are added and plates are incubated overnight at 4° C. Plates are rinsed with Tween-20 wash buffer and secondary antibody (Goat anti-rabbit, Thermofisher) is added. After 2 hours, plates are rinsed in Tween-20 wash buffer, and then PBS. Plates are imaged on the Celigo (Nexcelom) and cellular fluorescence is quantitated. Full inhibition of phospho-Akt is achieved with 1 uM BEZ235 (Sellekchem), while full inhibition of phospho-ERK is achieved with 1 uM MEK Inhibitor II Calbiochem). EC50 values are calculated using Graphpad Prism.

[4] = system: Erk phosphorylation in Panc10.05 (G12D) cells; experiment: In-Cell Western Erk phosphorylation; format: cell-based; settings: EC50, one hour treatment; read-out: In-Cell Western Erk phosporylation Panc10.05 (G12D)
Experimental: as §3, §4

[5] = system: Akt phosphorylation in Panc1 (G12D) cells; experiment: In-Cell Western Akt phosphorylation; format: cell-based; settings: EC50, one hour treatment; read-out: In-Cell Western Akt phosporylation Panc1 (G12D)
Experimental: as §3, §4

[6] = system: Akt phosphorylation in Panc10.05 (G12D) cells; experiment: In-Cell Western Akt phosphorylation; format: cell-based; settings: EC50, one hour treatment; read-out: In-Cell Western Akt phosporylation Panc10.05 (G12D)
Experimental: as §3, §4

[7] = biological target: K-ras G12D (GDP) (Homo sapiens, UniProt P01116, G12D); experiment: SPR assay (surface plasmon resonance); format: binding; settings: 25° C., 8% DMSO
Experimental: (§5) Selected compounds were also tested for selective binding to wild type and mutant forms of K-ras in the active and non-active state using surface plasmon resonance, and exemplary results are shown in Table 4.
(§6) The running buffer in all surface plasmon resonance experiments was 10 mM HEPES pH 7.4, 150 mM NaCl, 0.1% (v/v) Tween-20, 1 mM MgCl2, 8% DMSO. Experiments were carried out on the SensiQ Pioneer optical biosensor. The flow rate was set at 50 μL/min and the temperature was 25° C. kRAS protein was immobilized to the Nickel-NTA charged surface of the SensiQ HisCap chip (sensiqtech.com) giving a yield of 4000 RU. Small molecules were prepared in 100% DMSO and further diluted to 8% DMSO in running buffer. The small molecules were injected using the Taylor diffusion gradient injection mode (OneStep®, see e.g., Evaluation of Taylor dispersion injections: Determining kinetic/affinity interaction constants and diffusion coefficients in label-free biosensing, John G. Quinn, Analytical Biochemistry (2011)). Buffer blanks were injected for double referencing purposes. Data processing and model fitting were performed using Qdat.

[8] = biological target: K-ras G12D (GTP) (Homo sapiens, UniProt P01116, G12D); experiment: SPR assay (surface plasmon resonance); format: binding; settings: 25° C., 8% DMSO
Experimental: as §5, §6

[9] = biological target: K-ras G12V (GTP) (Homo sapiens, UniProt P01116, G12V); experiment: SPR assay (surface plasmon resonance); format: binding; settings: 25° C., 8% DMSO
Experimental: as §5, §6

[10] = biological target: K-ras wild-type (GDP) (Homo sapiens, UniProt P01116); experiment: SPR assay (surface plasmon resonance); format: binding; settings: 25° C., 8% DMSO
Experimental: as §5, §6

[11] = biological target: K-ras wild-type (GTP) (Homo sapiens, UniProt P01116); experiment: SPR assay (surface plasmon resonance); format: binding; settings: 25° C., 8% DMSO
Experimental: as §5, §6

[12] = system: Ras in BxPC-3 (K-Ras wild-type), Panc10.05 (K-Ras G12D mutant), Capan-2 (K-Ras G12V) cells; experiment: G-LISA Ras inhibition in cancer cell lines (FIG. 2); format: cell-based; settings: 3.1 to 25 μM, 1 hour, then 100 ng/ml EGF 2 minutes
Experimental: To verify the results in specific cancer cell lines, cancer cell lines BxPC-3 (K-Ras wild-type), Panc10.05 (K-Ras G12D mutant), and Capan-2 (K-Ras G12V) were treated with 3.1 to 25 μM of Ras compound A0837 for 1 hour before stimulation with 100 ng/ml EGF for 2 minutes. Cells were washed once in ice-cold PBS, lysed in complete lysis buffer on ice, and processed by G-LISA according to Cytoskeleton protocol.

[13] = system: pMEK and pErk in Panc10.05 (K-Ras G12D mutant) cells; experiment: SDS-PAGE/blot detection of pMEK and pErk (FIG. 3); format: cell-based; settings: serum-starved, 3.1 to 25 μM, 1 hour, then 100 ng/ml EGF 5 minutes
Experimental: The effect of contemplated compounds on cell signaling was tested in wild type and K-ras G12D mutant cells as follows: Cancer cell lines BxPC-3 (K-Ras wild-type), and Panc10.05 (K-Ras G12D mutant) were serum-starved 0/N before treatment with 3.1 to 25 μM of Ras compound A0837 for 1 hour before stimulation with 100 ng/ml EGF for 5 minutes. Cells were washed once in ice-cold PBS, lysed in complete lysis buffer on ice, and processed by SDS-PAGE under reducing conditions for the detection of pMEK and pErk. Membranes were stripped and re-probed for total MEK/Erk.

Cc1nc(C)c(C(=O)Nc2nc(-c3ccc4[nH]c(=O)[nH]c4c3)cs2)s1 [Compound 4562]
IC50 [1]: 6 µM
IC50 [2]: 2 µM
EC50 [3]: 5 µM
EC50 [4]: 4 µM
EC50 [5]: 8 µM
EC50 [6]: 22 µM
Kd [7]: 111 µM
SPR Assay G12D (GDP) Rmax [7]: Rmax = 66.0 ± 0.9
SPR Assay G12D (GTP) Kd [8]: No binding/fit
SPR Assay G12V (GTP) Rmax [9]: Rmax = 300000
Kd ([9]; value in mM): 10 mM
SPR Assay Wild-type (GDP) Kd [10]: No
SPR Assay Wild-type (GTP) Kd [11]: No binding/fit
Selectivity of Ras inhibition in cancer cell lines, G-LISA (FIG. 2) [12]: clear selectivity towards K-ras mutant G12D
Signaling downstream of Ras (pMEK, pErk), mutant cell line (FIG. 3) [13]: inhibited signaling downstream of Ras in the mutant cell line
